# Experimental data published in patent US20220204498A1, “PYRIDO-PYRIMIDINYL COMPOUNDS AND METHODS OF USE” (Genentech, Inc., priority 2019, published 2022).
# pIC50: −log10 of the molar value. Counter-ions that a name gives are not always drawn.
# Molecular target: T1, IRE1α (Homo sapiens, UniProt O75460, D688N)
# T1 construct: containing the kinase and RNase domains (KR, AA G547-1L977, D688N); made in house; host or cells: Sf9 insect cells
# Assay: IRE1α TR-FRET competition binding assay (IRE1α HTRF)
# Details: His-tagged IRE1α kinase dead construct (KR, D688N) 0.25 nM; Alexa fluor 647-labeled ATP competitive probe 2 nM; one hour at room temperature; read-out: IRE1α (alpha) HTRF (IC50)
# Protocol: Example 59. IRE1α TR-FRET Competition Binding Assay
# To determine the affinity of compound binding to the kinase domain of IRE1α, a time-resolved fluorescence resonance energy transfer (TR-FRET) competition assay was used.
# A His-tagged IRE1α kinase dead construct containing the kinase and RNase domains (KR, AA G547-1L977, D688N) was expressed in Sf9 insect cells. The purified protein (final concentration 0.25 nM) was pre-incubated with anti-His Europium labeled antibody (Life Technologies PV5596, final concentration 2 nM) for one hour at 4° C. in TR-FRET Assay Buffer (50 mM HEPES, pH 7.5, 10 mM MgCl2, 0.083 mM Brij 35, 1 mM DTT, and 0.1% bovine gamma globulin) prior to addition to test compounds. An Alexa fluor 647-labeled probe based on an ATP competitive inhibitor was added to a final concentration of 2 nM. Reactions were carried out for one hour at room temperature in a final volume of 20 μL in 384 well white ProxiPlates (Perkin Elmer 6008289). Binding of the probe to the IRE1α protein was detected in an Envision instrument (PerkinElmer) equipped with a TRF laser option and a LANCE/Delfia Dual/Bias D400/D630 mirror (Ex 347 nm, 1st Em 665 nm, 2nd Em 615 nm).
# T1 sequence (O75460 547-977 D688N): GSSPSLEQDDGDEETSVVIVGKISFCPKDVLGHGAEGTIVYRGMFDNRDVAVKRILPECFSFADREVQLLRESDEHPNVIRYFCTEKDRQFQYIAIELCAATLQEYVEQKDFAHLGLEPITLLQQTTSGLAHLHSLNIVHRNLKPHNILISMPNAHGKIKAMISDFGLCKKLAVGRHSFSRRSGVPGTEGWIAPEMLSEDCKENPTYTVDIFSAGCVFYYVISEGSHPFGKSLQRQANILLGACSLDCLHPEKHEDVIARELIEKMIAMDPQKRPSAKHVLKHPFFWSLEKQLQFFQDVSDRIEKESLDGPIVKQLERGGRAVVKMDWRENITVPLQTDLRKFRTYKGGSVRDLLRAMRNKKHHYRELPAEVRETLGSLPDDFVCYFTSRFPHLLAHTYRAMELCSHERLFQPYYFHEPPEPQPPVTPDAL
row,pIC50,SMILES
1,8.96,"CC(Oc1nc2nc(N[C@@H]3CNC[C@@H](F)C3)ncc2cc1-c1ccc(NS(=O)(=O)Cc2ccccc2)c(F)c1F)C(F)F (single isomer, unassigned) [Compound 102]"
2,8.96,"CC(Oc1nc2nc(N[C@@H]3CNC[C@@H](F)C3)ncc2cc1-c1ccc(NS(=O)(=O)Cc2ccccc2)c(F)c1F)C(F)F (single isomer, unassigned) [Compound 103]"
3,9.18,"O=S(=O)(Cc1ccccc1)Nc1c(F)cc(-c2cc3cnc(N[C@@H]4CNC[C@@H](F)C4)nc3nc2OC2CCOC2)c(F)c1F (single isomer, unassigned) [Compound 104]"
4,9.41,"O=S(=O)(Cc1ccccc1)Nc1c(F)cc(-c2cc3cnc(N[C@@H]4CNC[C@@H](F)C4)nc3nc2OC2CCOC2)c(F)c1F (single isomer, unassigned) [Compound 105]"
5,9.05,"O=S(=O)(Cc1ccccc1)Nc1ccc(-c2ccc3nc(N[C@@H]4CNC[C@@H](F)C4)ncc3n2)cc1F [Compound 100, N-(2-Fluoro-4-(2-(((3S,5S)-5-fluoropiperidin-3-yl)amino)pyrido[3,2-d]pyrimidin-6-yl)phenyl)-1-phenylmethanesulfonamide]"
6,8.52,"O=S(=O)(Cc1ccccc1)Nc1ccc(-c2cc3cnc(N[C@@H]4CNC[C@@H](F)C4)nc3cn2)cc1F [Compound 101, N-(2-Fluoro-4-(2-(((3S,5S)-5-fluoropiperidin-3-yl)amino)pyrido[3,4-d]pyrimidin-6-yl)phenyl)-1-phenylmethanesulfonamide]"
7,9.52,"Cc1cc(-c2ccc(NS(=O)(=O)Cc3ccccc3)c(F)c2)nc2cnc(N[C@@H]3CNC[C@@H](F)C3)nc12 [Compound 106, N-(2-Fluoro-4-(2-(((3S,5S)-5-fluoropiperidin-3-yl)amino)-8-methylpyrido[3,2-d]pyrimidin-6-yl)phenyl)-1-phenylmethanesulfonamide]"
8,9.70,"Cc1cc(-c2ccc(NS(=O)(=O)CCC(F)(F)F)c(F)c2)nc2cnc(N[C@H]3CC[C@H](N(C)C)CC3)nc12 [Compound 107, N-(4-(2-(((1r,4r)-4-(Dimethylamino)cyclohexyl)amino)-8-methylpyrido[3,2-d]pyrimidin-6-yl)-2-fluorophenyl)-3,3,3-trifluoropropane-1-sulfonamide]"
9,9.70,"Cc1cc(-c2cc(F)c(NS(=O)(=O)Cc3ccccc3)c(F)c2)nc2cnc(N[C@@H]3CNC[C@@H](F)C3)nc12 [Compound 108, N-(2,6-Difluoro-4-(2-(((3S,5S)-5-fluoropiperidin-3-yl)amino)-8-methylpyrido[3,2-d]pyrimidin-6-yl)phenyl)-1-phenylmethanesulfonamide]"
10,8.24,"O=S(=O)(Cc1ccccc1)Nc1ccc(-c2cnc3nc(N[C@@H]4CNC[C@@H](F)C4)ncc3c2)cc1F [Compound 109, N-(2-Fluoro-4-(2-(((3S,5S)-5-fluoropiperidin-3-yl)amino)pyrido[2,3-d]pyrimidin-6-yl)phenyl)-1-phenylmethanesulfonamide]"
11,8.96,"Cc1cc(-c2ccc(NS(=O)(=O)CCC(F)(F)F)c(F)c2)nc2cnc(N[C@@H]3CNC[C@@H](F)C3)nc12 [Compound 110, 3,3,3-Trifluoro-N-(2-fluoro-4-(2-(((3S,5S)-5-fluoropiperidin-3-yl)amino)-8-methylpyrido[3,2-d]pyrimidin-6-yl)phenyl)propane-1-sulfonamide]"
12,8.68,"CCCS(=O)(=O)Nc1ccc(-c2cc(C)c3nc(N[C@@H]4CNC[C@@H](F)C4)ncc3n2)cc1F [Compound 111, N-(2-Fluoro-4-(2-(((3S,5S)-5-fluoropiperidin-3-yl)amino)-8-methylpyrido[3,2-d]pyrimidin-6-yl)phenyl)propane-1-sulfonamide]"
13,9.49,"CCCS(=O)(=O)Nc1ccc(-c2cc(C)c3nc(N[C@H]4CC[C@H](N(C)C)CC4)ncc3n2)cc1F [Compound 112, N-(4-(2-(((1,4-trans)-4-(Dimethylamino)cyclohexyl)amino)-8-methylpyrido[3,2-d]pyrimidin-6-yl)-2-fluorophenyl)propane-1-sulfonamide formate]"
14,9.77,"Cc1cc(-c2ccc(NS(=O)(=O)CCC(C)(F)F)c(F)c2)nc2cnc(N[C@H]3CC[C@H](N(C)C)CC3)nc12 [Compound 113, N-(4-(2-(((1,4-trans)-4-(Dimethylamino)cyclohexyl)amino)-8-methylpyrido[3,2-d]pyrimidin-6-yl)-2-fluorophenyl)-3,3-difluorobutane-1-sulfonamide formate]"
15,10.10,"CCc1cc(-c2ccc(NS(=O)(=O)CCC(F)(F)F)c(F)c2)nc2cnc(N[C@H]3CC[C@H](N(C)C)CC3)nc12 [Compound 114, N-(4-(2-(((1,4-trans)-4-(Dimethylamino)cyclohexyl)amino)-8-ethylpyrido[3,2-d]pyrimidin-6-yl)-2-fluorophenyl)-3,3,3-trifluoropropane-1-sulfonamide]"
16,9.59,"Cc1cc(-c2ccc(NS(=O)(=O)Cc3ccc(F)cc3F)c(F)c2)nc2cnc(N[C@@H]3CNC[C@@H](F)C3)nc12 [Compound 115, 1-(2,4-Difluorophenyl)-N-(2-fluoro-4-(2-(((3S,5S)-5-fluoropiperidin-3-yl)amino)-8-methylpyrido[3,2-d]pyrimidin-6-yl)phenyl)methanesulfonamide]"
17,9.89,"Cc1cc(-c2ccc(NS(=O)(=O)Cc3ccc(C#N)cc3)c(F)c2)nc2cnc(N[C@@H]3CNC[C@@H](F)C3)nc12 [Compound 116, 1-(4-Cyanophenyl)-N-(2-fluoro-4-(2-(((3S,5S)-5-fluoropiperidin-3-yl)amino)-8-methylpyrido[3,2-d]pyrimidin-6-yl)phenyl)methanesulfonamide formate]"
18,9.96,"CCC(F)(F)CS(=O)(=O)Nc1ccc(-c2cc(C)c3nc(N[C@H]4CC[C@H](N(C)C)CC4)ncc3n2)cc1F [Compound 117, N-(4-(2-(((1,4-trans)-4-(Dimethylamino)cyclohexyl)amino)-8-methylpyrido[3,2-d]pyrimidin-6-yl)-2-fluorophenyl)-2,2-difluorobutane-1-sulfonamide formate]"
19,7.66,"COc1cc(-c2ccc(NS(=O)(=O)CCC(F)(F)F)c(F)c2)nc2cnc(N[C@H]3CC[C@H](N(C)C)CC3)nc12 [Compound 118, N-(4-(2-(((1,4-trans)-4-(Dimethylamino)cyclohexyl)amino)-8-methoxypyrido[3,2-d]pyrimidin-6-yl)-2-fluorophenyl)-3,3,3-trifluoropropane-1-sulfonamide formate]"
20,9.41,"CCc1cc(-c2ccc(NS(=O)(=O)CCC(F)(F)F)c(F)c2)nc2cnc(N[C@@H]3CNC[C@@H](F)C3)nc12 [Compound 119, N-(4-(8-Ethyl-2-(((3S,5S)-5-fluoropiperidin-3-yl)amino)pyrido[3,2-d]pyrimidin-6-yl)-2-fluorophenyl)-3,3,3-trifluoropropane-1-sulfonamide formate]"
21,9.60,"Cc1cc(-c2ccc(NS(=O)(=O)CCC(F)(F)F)c(Cl)c2)nc2cnc(N[C@H]3CC[C@H](N(C)C)CC3)nc12 [Compound 120, N-(2-Chloro-4-(2-(((1,4-trans)-4-(dimethylamino)cyclohexyl)amino)-8-methylpyrido[3,2-d]pyrimidin-6-yl)phenyl)-3,3,3-trifluoropropane-1-sulfonamide]"
22,9.57,"Cc1cc(-c2ccc(NS(=O)(=O)Cc3ccc(F)cc3)c(F)c2)nc2cnc(N[C@@H]3CNC[C@@H](F)C3)nc12 [Compound 121, N-(2-Fluoro-4-(2-(((3S,5S)-5-fluoropiperidin-3-yl)amino)-8-methylpyrido[3,2-d]pyrimidin-6-yl)phenyl)-1-(4-fluorophenyl)methanesulfonamide formate]"
23,9.70,"CCc1cc(-c2ccc(NS(=O)(=O)Cc3ccccc3)c(F)c2)nc2cnc(N[C@@H]3CNC[C@@H](F)C3)nc12 [Compound 122, N-(4-(8-Ethyl-2-(((3S,5S)-5-fluoropiperidin-3-yl)amino)pyrido[3,2-d]pyrimidin-6-yl)-2-fluorophenyl)-1-phenylmethanesulfonamide formate]"
24,9.74,"CCc1cc(-c2ccc(NS(=O)(=O)c3ccccc3Cl)c(F)c2)nc2cnc(N[C@@H]3CNC[C@@H](F)C3)nc12 [Compound 123, 2-Chloro-N-(4-(8-ethyl-2-(((3S,5S)-5-fluoropiperidin-3-yl)amino)pyrido[3,2-d]pyrimidin-6-yl)-2-fluorophenyl)benzenesulfonamide formate]"
25,9.80,"CC(C)c1cc(-c2ccc(NS(=O)(=O)CCC(F)(F)F)c(F)c2)nc2cnc(N[C@H]3CC[C@H](N(C)C)CC3)nc12 [Compound 124, N-(4-(2-(((1,4-trans)-4-(Dimethylamino)cyclohexyl)amino)-8-isopropylpyrido[3,2-d]pyrimidin-6-yl)-2-fluorophenyl)-3,3,3-trifluoropropane-1-sulfonamide]"
26,9.36,"Cc1cc(-c2ccc(NS(=O)(=O)CCC(F)(F)F)nc2)nc2cnc(N[C@H]3CC[C@H](N(C)C)CC3)nc12 [Compound 125, N-(5-(2-(((1,4-trans)-4-(Dimethylamino)cyclohexyl)amino)-8-methylpyrido[3,2-d]pyrimidin-6-yl)pyridin-2-yl)-3,3,3-trifluoropropane-1-sulfonamide]"
